From US20220125838A1, “IMMUNOMODULATORY GLYCOSPHINGOLIPIDS AND METHODS OF USE THEREOF” (President and Fellows of Harvard College, priority 2019, published 2022)

Tested on: NKT cells
Assay: In vivo cytokine assay (serum IL-2, IFN-γ, IL-4 after intraperitoneal injection)
Design: species or system mice
Details: 1 μg per mouse intraperitoneally
Method: To investigate the relevance of structural variation to immunomodulatory function, an in vitro panel screening assay of synthetic BfaGCs was carried out in a co-culture system with bone marrow-derived dendritic cells (BMDCs) and NKT cells. Levels of interleukin 2 (IL-2) production in the presence of individual BfaGCs clearly distinguished two groups with different levels of NKT cell recognition: strong and weak stimulators (FIG. 3A). Strikingly, all 10 strong stimulators have branched (either ω-2 or ω-3) sphinganine chains, whereas none of 11 weak stimulators have such branching. […] These molecules were individually injected into mice (1 μg per mouse, intraperitoneally), and systemic levels of cytokines were quantified and directly compared to those in mice injected with KRN7000 (a prototypic Th1 agonist) and mice injected with OCH (a Th2 agonist). Serum IL-2 levels 2 h after injection show trends consistent with in vitro results (KRN7000>SB2217>SB2219), which implies that BfaGCs are also functioning in vivo (FIG. 3B). […] Although It is well established that aGCs with very long fatty acyl chains (e.g., KRN7000, which has a C26 saturated chain) selectively induce Th1-type cytokines and that shorter-sphingoid-chain aGCs (e.g., OCH, which has a C8 saturated chain) skew toward Th2, aGCs with acyl and sphingoid chain lengths of long-chain fatty acids (C15-C19), prominently identified in B. fragilis, are less well investigated (21).
Mice (n=4 per group) were given 100 uL of KRN7000, OCH, SB2217 or SB2219 solution (1 ug, 0.9% DMSO in PBS) intraperitoneally. Animals were bled at 2 hours after injection from tail vein (˜100 uL per animal). At 18 hours after injection, animals were euthanized and second 100 uL blood was drawn by cardiac puncture. Fresh blood was collected to Z-Gel tubes (Sarstedt) to form blood clot and spun at 10,000×g for 5 minutes for serum separation. Samples were frozen at −80 degree until analysis by multiplex ELISA (Eve Technologies, Calgary, Canada).

[1] = serum at observed time points (2 and 18 hours)

Compound | serum IL-2 level (2 h after injection) | Th1 cytokine (IFN-γ) induction in vivo [1] | Th2 cytokine (IL-4) induction in vivo [1]
CCCCCCCCCCCCCCCCCCCCCCCCCC(=O)N[C@@H](CO[C@H]1O[C@H](CO)[C@H](O)[C@H](O)[C@H]1O)[C@H](O)[C@H](O)CCCCCCCCCCCCCC [KRN7000] | KRN7000>SB2217>SB2219 | stimulates IFN-gamma | 
CCCCCCCCCCCCCCCCCCCCCCCC(=O)N[C@@H](CO[C@H]1O[C@H](CO)[C@H](O)[C@H](O)[C@H]1O)[C@H](O)[C@H](O)CCCCC [OCH] |  |  | stimulates IL-4
